How the values were obtained:
[1] = Inhibition of LPS-induced IL-6 secretion in mouse primary peritoneal macrophages by ELISA; format: functional, cell-based; conditions: Peritoneal macrophage
[2] = Inhibition of LPS-induced TNF-alpha secretion in mouse primary peritoneal macrophages by ELISA; format: functional, cell-based; conditions: Peritoneal macrophage
Glucocorticoid receptor [3] = target: T1, Glucocorticoid receptor (Homo sapiens, UniProt P04150); assay: Binding affinity to glucocorticoid receptor (unknown origin) by Lanthascreen TR-FRET competition binding assay
T1 sequence (P04150 whole entry): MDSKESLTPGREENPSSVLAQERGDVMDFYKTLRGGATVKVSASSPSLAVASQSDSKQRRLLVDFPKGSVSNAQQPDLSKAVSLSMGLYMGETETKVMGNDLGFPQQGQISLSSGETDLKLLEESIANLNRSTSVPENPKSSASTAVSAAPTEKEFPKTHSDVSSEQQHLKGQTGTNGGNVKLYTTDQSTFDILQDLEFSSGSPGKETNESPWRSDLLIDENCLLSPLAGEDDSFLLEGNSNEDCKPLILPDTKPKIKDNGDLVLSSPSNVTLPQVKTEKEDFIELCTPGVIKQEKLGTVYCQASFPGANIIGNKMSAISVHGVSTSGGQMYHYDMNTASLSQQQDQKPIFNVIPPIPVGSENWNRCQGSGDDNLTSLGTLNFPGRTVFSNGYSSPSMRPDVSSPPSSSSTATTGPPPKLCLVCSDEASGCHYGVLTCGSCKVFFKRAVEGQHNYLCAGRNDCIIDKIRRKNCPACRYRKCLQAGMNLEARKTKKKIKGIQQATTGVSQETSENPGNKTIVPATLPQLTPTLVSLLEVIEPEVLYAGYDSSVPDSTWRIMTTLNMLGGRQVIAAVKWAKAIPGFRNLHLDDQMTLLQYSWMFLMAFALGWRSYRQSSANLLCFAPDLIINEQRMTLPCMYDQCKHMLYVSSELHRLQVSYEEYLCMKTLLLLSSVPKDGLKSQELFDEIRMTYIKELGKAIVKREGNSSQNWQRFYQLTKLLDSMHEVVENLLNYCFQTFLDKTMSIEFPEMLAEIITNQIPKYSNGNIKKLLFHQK

Glucocorticoid receptor [4] = target: T1, Glucocorticoid receptor; assay: Modulation of glucocorticoid receptor (unknown origin) transfected in human HeLa cells assessed as transrepression by measuring inhibition of TNF-alpha induced NF-kappaB signalling incubated for 18 hrs by dual-luciferase reporter based assay; format: cell-based
Glucocorticoid receptor [5] = target: T1, Glucocorticoid receptor; assay: Modulation of glucocorticoid receptor (unknown origin) transfected in human HeLa cells assessed as transrepression by measuring inhibition of PMA-induced AP-1 signalling incubated for 18 hrs by dual-luciferase reporter based assay; format: cell-based
Glucocorticoid receptor [6] = target: T1, Glucocorticoid receptor; assay: Antagonist activity at glucocorticoid receptor (unknown origin) transfected in human HeLa cells assessed as inhibition of dexamethasone-induced transactivation of receptor incubated for 18 hrs by firefly luciferase assay; format: cell-based
NIH3T3 = assay: Cytotoxicity against mouse 3T3 cells assessed as inhibition of cell growth; format: toxicity, cell-based
GES1 = assay: Cytotoxicity against human GES1 cells assessed as inhibition of cell growth; format: toxicity, cell-based
[7] = Cmax in BALB/c mouse at 10 mg/kg, po; format: ADME, organism-based; parameters: dose 10 mg/kg, route po; conditions: in vivo
[8] = Tmax in BALB/c mouse at 10 mg/kg, po; format: ADME, organism-based; conditions: in vivo
[9] = Half life in BALB/c mouse at 10 mg/kg, po; format: ADME, organism-based; conditions: in vivo
[10] = Oral bioavailability in BALB/c mouse at 10 mg/kg; format: ADME, organism-based; conditions: in vivo
[11] = Toxicity in DNCB-induced BALB/c atopic dermatitis mouse model assessed as reduction in body weight at 5 to 20 mg/kg, po administered via gavage for 21 consecutive days starting from day 4 post DNCB stimulation; format: organism-based; conditions: in vivo, 504 h, dose 5-20 mg/kg, time 21 day
[12] = Toxicity in DNCB-induced BALB/c atopic dermatitis mouse model assessed as body weight gain at 1 mg/kg, po administered via gavage for 21 consecutive days starting from day 4 post DNCB stimulation; format: organism-based; conditions: in vivo, 504 h, time 21 day
[13] = Cytotoxicity against human Chang liver cells assessed as inhibition of cell growth; format: toxicity, cell-based

| Compound | IC50 (Glucocorticoid receptor [3]) [µM] | IC50 (Glucocorticoid receptor [4]) [µM] | IC50 (Glucocorticoid receptor [5]) [µM] | other results |
| --- | --- | --- | --- | --- |
| COc1ccc(C(=O)/C=C/c2cccc(OC)c2OC)cc1 |  |  |  | IC50 [1]: 10 µM; IC50 [2]: 10 µM |
| COc1cc(C)c(Cl)cc1S(=O)(=O)Nc1ccc2c(c1)CCCN2C(=O)c1ccc(Cl)cc1 | 2.07 | 0.1 | 1.81 |  |
| COc1cc(C)c(Cl)cc1S(=O)(=O)Nc1ccc2c(c1)CCCN2C(=O)c1ccc(C(F)(F)F)cc1 | 2.22 | 0.3 | 3.33 |  |
| COc1cc(C)c(Cl)cc1S(=O)(=O)Nc1ccc2c(c1)CCCN2C(C)=O | 3.19 | 0.47 | 2.71 | IC50 (Glucocorticoid receptor [6]): 12.1 µM |
| COc1cc(C)c(Cl)cc1S(=O)(=O)Nc1ccc2c(c1)CCCN2C(=O)c1cccs1 | 1.14 | 0.17 | 1.36 |  |
| COc1ccc(C(=O)N2CCCc3cc(NS(=O)(=O)c4cc(Cl)c(C)cc4OC)ccc32)cc1OC | 3.43 | 0.45 | 1.32 |  |
| CCCCc1ccc(C(=O)N2CCCc3cc(NS(=O)(=O)c4cc(Cl)c(C)cc4OC)ccc32)cc1 | > 50 | 0.1 | > 10 |  |
| COc1cc(C)c(Cl)cc1S(=O)(=O)Nc1ccc2c(c1)CCCN2C(=O)c1ccncc1 | > 50 | 0.02 | 0.55 |  |
| COC(=O)c1ccc(C(=O)N2CCCc3cc(NS(=O)(=O)c4cc(Cl)c(C)cc4OC)ccc32)cc1 | > 50 | 0.71 | 2.72 |  |
| COc1cc(C)c(Cl)cc1S(=O)(=O)Nc1ccc2c(c1)CCCN2C(=O)C1CCCCC1 | > 50 | 0.58 | > 10 |  |
| COc1cc(C)c(Cl)cc1S(=O)(=O)Nc1ccc2c(c1)CCCN2C(=O)c1ccccc1 | 1.91 | 0.009 | 0.13 | IC50 (Glucocorticoid receptor [6]): 19 µM; IC50 [1]: 6.9 µM; IC50 [2]: 7.74 µM; Activity (NIH3T3): Non-Toxic; Activity (GES1): Non-Toxic; Cmax [7]: 0.394 µg/mL; Tmax [8]: 5 min; half-life [9]: 30 min; bioavailability [10]: 19.8%; Activity [11]: Non-Toxic |
| COc1cc(C)c(Cl)cc1S(=O)(=O)Nc1ccc2c(c1)CCCN2C(=O)c1ccc2ccccc2c1 | 3.28 | 0.33 | 1.95 |  |
| COc1cc(C)c(Cl)cc1S(=O)(=O)Nc1ccc2c(c1)CCCN2C(=O)c1ccc(F)cc1 | 6.96 | 0.35 | 2.73 | IC50 (Glucocorticoid receptor [6]): 14.2 µM |
| COc1cc(C)c(Cl)cc1S(=O)(=O)Nc1ccc2c(c1)CCCN2C(=O)c1ncccn1 | > 50 | 0.13 | 1.17 |  |
| O=C(c1ccco1)N1CCCc2cc(NS(=O)(=O)CCc3ccccc3)ccc21 | > 10 | > 10 | 6.53 | IC50 (Glucocorticoid receptor [6]): > 10 µM |
| COc1ccc(C(=O)N2CCCc3cc(NS(=O)(=O)c4cc(Cl)c(C)cc4OC)ccc32)cc1 | > 50 | 0.067 | 1.42 |  |
| COc1cc(C)c(Cl)cc1S(=O)(=O)Nc1ccc2c(c1)CCCN2C(=O)c1ccc(C)cc1 | > 50 | 0.08 | 1.11 |  |
| COc1cc(C)c(Cl)cc1S(=O)(=O)Nc1ccc2c(c1)CCCN2C(=O)N(C)C | 2.75 | 0.05 | 0.53 | IC50 (Glucocorticoid receptor [6]): 27.3 µM |
| C[C@@H]1C[C@H]2[C@@H]3CCC4=CC(=O)C=C[C@]4(C)[C@@]3(F)[C@@H](O)C[C@]2(C)[C@@]1(O)C(=O)CO [DEXAMETHASONE] |  |  |  | Activity (GES1): Non-Toxic; Activity [12]: Non-Toxic |
| CC(C)[C@H](NC(=O)C(C)(F)F)[C@H](Oc1ccc2c(cnn2-c2ccc(=O)n(C)c2)c1)c1ccccc1 [MIZACORAT] |  |  |  | Activity (NIH3T3): Toxic; Activity (GES1): Toxic; Activity [13]: Toxic |

Source: ChEMBL document CHEMBL5236596, “Discovery and Optimization of N-Acyl-6-sulfonamide-tetrahydroquinoline Derivatives as Novel Non-Steroidal Selective Glucocorticoid Receptor Modulators” (J Med Chem, 2022)
